Test results taken from paper PMC9706920, “Aryloxypropanolamine targets amyloid aggregates and reverses Alzheimer-like phenotypes in Alzheimer mouse models” (Alzheimer's Research & Therapy, 2022).

Assays:
[1] = target: T1, CYP 1A2 (Homo sapiens, UniProt P05177); assay: CYP450 inhibition assay, 1A2; format: in vitro ADME; conditions: YIAD002 10 μM, human liver microsomes; weak or no inhibition; read-out: CYP 1A2 inhibition, IC50 (inhibition criteria)
T1 construct: […]; from tissue; host or cells: human liver microsomes
T1 sequence (P05177 1-516): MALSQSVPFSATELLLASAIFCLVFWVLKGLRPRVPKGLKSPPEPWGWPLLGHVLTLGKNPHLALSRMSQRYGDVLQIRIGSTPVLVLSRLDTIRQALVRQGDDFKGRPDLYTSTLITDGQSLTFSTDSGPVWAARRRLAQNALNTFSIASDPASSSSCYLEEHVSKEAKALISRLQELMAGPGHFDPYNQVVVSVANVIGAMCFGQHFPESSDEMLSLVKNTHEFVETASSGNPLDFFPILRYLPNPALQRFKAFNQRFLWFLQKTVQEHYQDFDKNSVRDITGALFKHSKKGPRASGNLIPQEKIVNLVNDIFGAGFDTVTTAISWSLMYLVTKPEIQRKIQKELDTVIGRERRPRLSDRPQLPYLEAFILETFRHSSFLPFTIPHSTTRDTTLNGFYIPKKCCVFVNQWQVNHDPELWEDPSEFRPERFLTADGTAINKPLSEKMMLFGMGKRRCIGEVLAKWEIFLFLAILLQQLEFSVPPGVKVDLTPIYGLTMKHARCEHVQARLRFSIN
Description: Incubation mixtures for Cytochrome P450s (CYPs) inhibition assay contained human liver microsomes (0.25 mg/ml), 0.1 M phosphate buffer (pH 7.4), 10 μM of YIAD002, and an enzyme substrate cocktail (phenacetin 50 μM, diclofenac 10 μM, S-mephenytoin 100 μM, dextromethorphan 5 μM, and midazolam 2.5 μM). The mixture was pre-incubated at 37°C for 5 min and 1 mM NAPDH was added to initiate reactions. After 15 min of incubation, acetonitrile with terfenadine was added to stop reactions and microsomal solutions were centrifuged at 14,000 rpm at 4°C for 5 min. For LC-MS/MS analysis, supernatants were injected on a Kinetex C18 column (2.1 × 100 mm, 2.6 μm particle size, Phenomenex, USA). The composition of the mobile phase was 0.1% formic acid in water (A) and 0.1% formic acid in acetonitrile (B).

[2] = Microsomal stability, mouse; format: in vitro ADME; conditions: 1 μM, 30 min, 37°C
Description: To evaluate the rate of drug metabolism, we tested YIAD002 stability in liver microsomes of human, rat, and mouse. Microsomal concentration was 0.5 mg/ml in 0.1 M phosphate buffer (pH 7.4). 1 μM of YIAD002 was added to microsome solutions and was prewarmed at 37°C for 5 min. NADPH-regenerating solution was added to microsomes and incubated at 37°C for 30 min. At the end of incubation, acetonitrile with chlorpropamide was added to stop reactions and microsomal solutions were centrifuged at 14,000 rpm at 4°C for 5 min. For LC-MS/MS analysis, supernatants were injected on a Kinetex C18 column (2.1 × 100 mm, 2.6 μm particle size, Phenomenex, USA). The composition of the mobile phase was 0.1% formic acid in water (A) and 0.1% formic acid in acetonitrile (B).

In the case of `CCC(C)(C)c1ccc(OCC(O)CN2CCCC2)c(C(C)(C)CC)c1.Cl` (centres unmarked) [YIAD002, 1-(3-(2,4-Di-tert-pentylphenoxy)-2-hydroxypropyl)pyrrolidin-1-ium chloride], the IC50 [1] is reported as > 10 µM and the “Remaining compound in mouse microsomes” value [2] is reported as 14.2%.
